# Test results taken from patent publication US4613695A, “N-nitroso compounds and compositions containing such compounds” (Aktiebolaget Leo, priority 1982, dated 1986).
# Like-named read-outs stand apart in the source and are kept apart here.
# Experiments:
# Lymphatic leukemia L1210 = Lymphatic leukemia L1210 survival test (survival time increase, long term survival, cure potential); type: in vivo, Female BDF1 mice; conditions: for minimal effective dose: Mus musculus, L1210, po; for minimal effective dose / Maximum effective dose (survival time increase) / Dose or dose range for cure: p.o. once; for T.I.s (long term survival; max.effect.dose/min.effect.dose): long term survival T·100/To >20%; for T.I.s = max.effect.dose/min.effect.dose: survival time increase, t·100/c ≥125%; for Dose or dose range for cure: ≥90% long term survivors on day 60
# Description: The experimental design and interpretation of the results are in accordance with the standards set by the CCNSC (see reference (16)) and by the DR&D (see reference (17)).
# Experimental animals: Female BDF1 mice
# Tumour implants: 10^5 tumour cells implanted intraperitoneally (i. p.)
# Therapy: The compounds were administered p. o. once on the day following the implantation.
# Termination: The animals were killed on the 60th day after the implantation. Living animals on the 60th day are termed long term survivors.
# (a) Evaluation of therapeutic dose range for survival time increase: Survival times at various dose levels are determined, and the survival time of the test animals (t) is expressed as the percentage of that of the control animals (c):
# The maximum effective dose and the minimum effective dose required to achieve t·100/c≥125% are determined, and a therapeutic index as defined below is calculated:
# T. I.s =max.effect.dose/min.effect.dose.
# (b) Evaluation of therapeutic dose range for long term survival: Long time survival is determined at various dose levels and is expressed as surviving test animals on day 60 (T) as the percentage of that of the total number of test animals (To):
# The maximum effective dose and the minimum effective dose to achieve long term survival T·100/To >20% are determined and a therapeutic index, T. I.1 s is calculated:
# T. I.1s =max.effect.dose/min.effect.dose.
# (c) Evaluation of cure potential: The normal survival time for test animals receiving no therapeutic treatment is 9-11 days. Surviving test animals on the 60th day after implantation showing no sign of tumour presence are regarded as cured animals. Long term survival is determined as under (b) above, and the effective dose or dose range to achieve a long term survival T·100/To ≥90% is determined as an evaluation of the cure potential.
# [1] = system: Walker carcinosarcoma 256; experiment: Walker carcinosarcoma 256 tumour growth inhibition (single p.o. dose); type: in vivo, Female Sprague Dawley rats; conditions: for ED50: Rattus norvegicus, dose that causes a 50 percent reduction of tumour size, p.o. once, read-out: ED50
# From the text: (§1) A therapeutic index is an indication of the therapeutic usefulness of a compound, and such an index may be defined in various ways. One type of therapeutic index commonly used is the ratio LD50/ED50, wherein LD50 is the dose that causes a 50 percent lethality, and ED50 is the dose that causes a 50 percent reduction of tumour size. Another type of therapeutic index, useful in evaluation of increasing survival time, is the ratio between maximum and minimum effective dose. Both these types of therapeutic indexes are used and given in the experimental results below.
# (§2) The manner of administration of the compounds is by the oral (p. o.) route in each case.
# (§3) Experimental animals: Female Sprague Dawley rats
# (§4) Tumour implants: Tumour pieces with 2-3 mm diameter, implanted subcutaneously
# (§5) Therapy: The compound is administered p. o. once on the day after the implantation
# Termination: The animals are killed on the 9th day after implantation
# (§6) Evaluation: Weight of tumour is determined in test animals and compared with those of control animals. For each compound the LD50 and ED50 dose (as defined above) are determined. The therapeutic index, T. I., (LD50/ED50) is calculated.
# in vivo = conditions: rat, po
# From the text: as §1, §2, §3, §4, §5, §6
# [2] = cited from earlier work
# [3] = 1440 h, >20% long term survivors on day 60, read-out: Minimum effective dose (long term survival)
# [4] = median survival time percent of control ≥ 125%, read-out: Minimum effective dose (survival time increase)
# [5] = median survival time percent of control ≥ 125%
# [6] = therapeutic index LD50/ED50, p.o.
Compound,minimal effective dose (Lymphatic leukemia L1210; [3]) [mg/kg],minimal effective dose (Lymphatic leukemia L1210; [4]) [mg/kg],T.I.s (long term survival; max.effect.dose/min.effect.dose) (Lymphatic leukemia L1210),Maximum effective dose (survival time increase) (Lymphatic leukemia L1210; [5]) [mg/kg],T.I.s = max.effect.dose/min.effect.dose (Lymphatic leukemia L1210),Dose or dose range for cure (Lymphatic leukemia L1210),ED50 ([1]; po) [mg/kg],"T.I. LD50/ED50 [1, 6]",LD50 (in vivo) [mg/kg],"T.I. LD50/ED50 ([1]; rat, in vivo, po)","other types of toxicities ([2]; references (6, 7))","bone marrow toxicity ([2]; under clinical evaluation, reference (5))"
"O=NN(CCCl)C(=O)NCCS(=O)(=O)N1CCCCC1 [1:4, 1-(2-chloroethyl)-1-nitroso-3-(2-/1-piperidinosulfonyl/ethyl)-urea]",31,8,4,125,16,125 mg/kg,1,125,125,–,–,–
"CNS(=O)(=O)CCNC(=O)N(CCCl)N=O [1:5, 1-(2-chloroethyl)-3-(2-/methylaminosulfonyl/ethyl)-1-nitrosourea]",–,8,–,63,8,31 mg/kg,0.25,160,40,–,–,–
"CCCN(CCC)S(=O)(=O)CCNC(=O)N(CCCl)N=O [1:6, 1-(2-chloroethyl)-3-(2-/dipropylaminosulfonyl/ethyl)-1-nitrosourea]",–,31,–,250,8,125 mg/kg,2,125,250,–,–,–
"O=NN(CCCl)C(=O)NCCS(=O)(=O)NCc1ccccc1 [1:7, 3-(2-/benzylaminosulfonyl/ethyl)-1-(2-chloroethyl)-1-nitrosourea]",125,–,2,–,–,–,2,125,250,–,–,–
"O=NN(CCCl)C(=O)NCCS(=O)(=O)NCCO [1:14, 1-(2-chloroethyl)-3-(2-/2-hydroxyethylaminosulfonyl/ethyl)-1-nitrosourea]",31,16,4,125,8,63 mg/kg,0.6,150,90,–,–,–
"CN(CCO)S(=O)(=O)CCNC(=O)N(CCCl)N=O [1:15, 1-(2-chloroethyl)-3-(2-/N-2-hydroxyethyl-N-methyl-aminosulfonyl/ethyl)-1-nitrosourea]",31,16,4,125,8,63 mg/kg,0.6,–,90,150,–,–
"CN(C)S(=O)(=O)CCCCCNC(=O)N(CCCl)N=O [1:19, 1-(2-chloroethyl)-3-(5-/dimethylaminosulfonyl/pentyl)-1-nitrosourea]",63,–,2,–,–,125 mg/kg,1,250,250,–,–,–
"CN(C)S(=O)(=O)CCCCNC(=O)N(CCCl)N=O [1:24, 1-(2-chloroethyl)-3-(4-/dimethylaminosulfonyl/butyl)-1-nitrosourea]",63,31,4,250,8,125 mg/kg,2,–,250,125,–,–
"CN(C1CCCCC1)S(=O)(=O)CCNC(=O)N(CCCl)N=O [1:28, 1-(2-chloroethyl)-3-(2-/N-cyclohexyl-N-methylaminosulfonyl/ethyl)-1-nitrosourea]",125,31,2,250,8,125 mg/kg,2.5,> 100,> 250,–,–,–
"O=NN(CCCl)C(=O)NCCCl [BCNU, 1,2-bis-(2-chloroethyl)-nitrosourea, reference compound]",63,16,1,63,4,none,1,50,50,–,–,–
"O=NN(CCCl)C(=O)N[C@H]1C(O)O[C@H](CO)[C@@H](O)[C@@H]1O (stereo partly drawn) [Chlorozotocin, 2-/3-(2-chloroethyl)-3-nitrosoureido/-D-glucopyranose]",–,–,–,–,–,–,–,–,–,–,"still evident, e.g. liver and lung toxicity",decreased bone marrow toxicity
